pIC50: −log10 of the molar value.
Target: T1, P2X7 receptor (Homo sapiens, UniProt Q99572)
T1 construct: host or cells: SH-SY5Y
T1 sequence (Q99572 1-595): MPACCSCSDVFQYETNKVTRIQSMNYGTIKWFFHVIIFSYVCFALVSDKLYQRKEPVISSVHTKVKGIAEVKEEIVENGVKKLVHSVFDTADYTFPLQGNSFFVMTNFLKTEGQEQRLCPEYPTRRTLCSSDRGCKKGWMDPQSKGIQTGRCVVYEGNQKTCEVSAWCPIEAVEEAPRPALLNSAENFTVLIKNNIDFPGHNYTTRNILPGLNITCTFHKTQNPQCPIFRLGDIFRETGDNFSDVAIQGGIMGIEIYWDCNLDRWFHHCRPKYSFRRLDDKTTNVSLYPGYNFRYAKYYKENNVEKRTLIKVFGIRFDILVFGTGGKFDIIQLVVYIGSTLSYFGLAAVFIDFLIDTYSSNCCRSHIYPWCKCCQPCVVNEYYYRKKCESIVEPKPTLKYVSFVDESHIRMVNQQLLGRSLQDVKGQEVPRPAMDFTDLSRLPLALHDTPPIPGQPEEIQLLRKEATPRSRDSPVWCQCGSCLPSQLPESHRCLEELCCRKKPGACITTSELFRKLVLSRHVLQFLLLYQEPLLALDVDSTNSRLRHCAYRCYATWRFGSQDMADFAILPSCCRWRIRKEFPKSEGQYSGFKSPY
Experiment: P2X7 calcium mobilization assay, high throughput, antagonist activity (Example 4A)
Format: cell-based
Conditions: 50% decrease in the fluorescence response of cells exposed to 80 μM of 2′(3′)-O-(4-benzoyl-benzoyl)adenosine 5′-triphosphate; determined as in Example 4A; read-out: IC50
Outline: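 100,000 cells/well, plated day -1. Dye 1 h → rinse → compound 1 h, RT → FLIPR^TETRA Ca2+ mobilization. Max RFU minus mean negative control (no agonist); mean agonist-well max as positive control.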

Structure (SMILES) | pIC50
CNC(=O)c1ccc(NC(=O)Cc2cn3c(C(=O)NCC4CCCCCC4)cccc3n2)cc1 [Compound 957, N-(cycloheptylmethyl)-2-(2-{[4-(methylcarbamoyl)phenyl]amino}-2-oxoethyl) imidazo[1,2-a] pyridine-5-carboxamide] | > 5.70
NC(=O)COc1cccc(NC(=O)Cc2cn3c(C(=O)NCC4CCCCCC4)cccc3n2)c1 [Compound 958, 2-(2-{[3-(2-amino-2-oxoethoxy)phenyl]amino}-2-oxoethyl)-N-(cycloheptylmethyl) imidazo[1,2-a] pyridine-5-carboxamide] | > 5.70
CC(C)CC(CNC(=O)c1cccc2nc(CC(=O)N[C@@H]3CCNC3)cn12)c1ccc(Cl)cc1 (stereo partly drawn) [Compound 960, N-[2-(4-chlorophenyl)-4-methylpentyl]-2-{2-oxo-2-[(3R)-pyrrolidin-3-ylamino]ethyl} imidazo[1,2-a] pyridine-5-carboxamide] | > 5.70
O=C(Cc1cn2c(C(=O)NCC3(c4ccc(Cl)cc4)CCCCC3)cccc2n1)N[C@@H]1CCNC1 [Compound 961, N-{[1-(4-chlorophenyl)cyclohexyl]methyl}-2-{2-oxo-2-[(3R)-pyrrolidin-3-ylamino]ethyl} imidazo [1,2-a]pyridine-5-carboxamide] | > 5.70
O=C(O)Cc1cn2c(C(=O)NCC3(c4ccc(C(F)(F)F)cc4)CCCCC3)cccc2n1 [Compound 963, {5-[({1-[4-(trifluoromethyl)phenyl]cyclohexyl}methyl)carbamoyl]imidazo[1,2-a]pyridin-2-yl}acetic acid] | > 5.70
CC(C)CC(CNC(=O)c1cccc2nc(CC(=O)O)cn12)c1ccc(Cl)cc1 (stereo not drawn) [Compound 964, (5-{[2-(4-chlorophenyl)-4-methylpentyl]carbamoyl}imidazo[1,2-a]pyridin-2-yl) acetic acid] | > 5.70
CC(C)CC(CNC(=O)c1cccc2nc(CC(=O)O)cn12)c1ccc(C(F)(F)F)cc1 (stereo not drawn) [Compound 965, [5-({4-methyl-2-[4-(trifluoromethyl)phenyl]pentyl}carbamoyl)imidazo[1,2-a]pyridin-2-yl] acetic acid] | > 5.70
CCCCCCCC(CNC(=O)c1cccc2nc(CC(=O)O)cn12)c1ccccc1 (stereo not drawn) [Compound 966, {5-[(2-phenylnonyl)carbamoyl]imidazo[1,2-a]pyridin-2-yl} acetic acid] | > 5.70
CC(C)CC(CNC(=O)c1cccc2nc(CC(=O)N[C@@H]3CCN(C(=O)OC(C)(C)C)C3)cn12)c1ccc(Cl)cc1 (stereo partly drawn) [Compound 967, tert-butyl 3-{[(5-{[2-(4-chlorophenyl)-4-methylpentyl]carbamoyl}imidazo[1,2-a]pyridin-2-yl)acetyl]amino} pyrrolidine-1-carboxylate] | > 5.70
CC(C)(C)OC(=O)N1CC[C@@H](NC(=O)Cc2cn3c(C(=O)NCC4(c5ccc(Cl)cc5)CCCCC4)cccc3n2)C1 [Compound 968, tert-butyl (3R)-3-({[5-({[1-(4-chlorophenyl)cyclohexyl]methyl}carbamoyl)imidazo[1,2-a]pyridin-2-yl]acetyl}amino) pyrrolidine-1-carboxylate] | > 5.70
CC(C)CC(CNC(=O)c1cccc2nc(C3CCC(C(=O)O)CC3)cn12)c1ccc(Cl)cc1 (stereo not drawn) [Compound 969, 4-(5-{[2-(4-chlorophenyl)-4-methylpentyl]carbamoyl}imidazo[1,2-a]pyridin-2-yl)cyclohexane-carboxylic acid] | > 5.70
O=C(Cc1cn2c(C(=O)NCCc3ccccc3)cccc2n1)NCC12CC3CC(CC(C3)C1)C2 [Compound 972, 2-{2-[(adamantan-1-ylmethyl)amino]-2-oxoethyl}-N-(2-phenylethyl)imidazo[1,2-a]pyridine-5-carboxamide] | > 5.70
O=C(Cc1cn2c(C(=O)NC3CCCCC3)cccc2n1)NCC12CC3CC(CC(C3)C1)C2 [Compound 973, 2-{2-[(adamantan-1-ylmethyl)amino]-2-oxoethyl}-N-cyclohexylimidazo[1,2-a]pyridine-5-carboxamide] | > 5.70
CC(C)CC(CNC(=O)Cc1cn2c(C(=O)NC3CCCCC3)cccc2n1)c1ccc(Cl)cc1 (stereo not drawn) [Compound 975, 2-(2-{[2-(4-chlorophenyl)-4-methylpentyl]amino}-2-oxoethyl)-N-cyclohexylimidazo [1,2-a]pyridine-5-carboxamide] | > 5.70
O=C(Cc1cn2c(C(=O)NCC3CCCCC3)cccc2n1)NCC1(c2ccc(Cl)cc2)CCCCC1 [Compound 978, 2-[2-({[1-(4-chlorophenyl)cyclohexyl]methyl}amino)-2-oxoethyl]-N-(cyclohexylmethyl) imidazo[1,2-a] pyridine-5-carboxamide] | > 5.70
O=C(Cc1cn2c(C(=O)NCCc3ccccc3)cccc2n1)NCC1(c2ccc(Cl)cc2)CCCCC1 [Compound 979, 2-[2-({[1-(4-chlorophenyl)cyclohexyl]methyl}amino)-2-oxoethyl]-N-(2-phenylethyl) imidazo[1,2-a]pyridine-5-carboxamide] | > 5.70
O=C(Cc1cn2c(C(=O)NC3CCCCC3)cccc2n1)NCC1(c2ccc(Cl)cc2)CCCCC1 [Compound 980, 2-[2-({[1-(4-chlorophenyl)cyclohexyl]methyl}amino)-2-oxoethyl]-N-cyclohexyl-imidazo[1,2-a]pyridine-5-carboxamide] | > 5.70
CC(C)CC(CNC(=O)c1cccc2nc(CCC(=O)O)cn12)c1ccc(C(F)(F)F)cc1 (stereo not drawn) [Compound 986, 3-[5-({4-methyl-2-[4-(trifluoromethyl)phenyl]pentyl}carbamoyl)imidazo[1,2-a]pyridin-2-yl] propanoic acid] | > 5.70
O=C(Cc1cn2c(C(=O)NCC3(N4CCOCC4)CCCCC3)cccc2n1)NC1(CO)CCCC1 [Compound 988, 2-(2-{[1-(hydroxymethyl)cyclopentyl]amino}-2-oxoethyl)-N-[(1-morpholin-4-ylcyclohexyl)methyl] imidazo[1,2-a] pyridine-5-carboxamide] | > 5.70
O=C(O)CC(Cc1ccccc1)c1cn2c(C(=O)NCC34CC5CC(CC(C5)C3)C4)cccc2n1 (stereo not drawn) [Compound 994, 3-{5-[(adamantan-1-ylmethyl)carbamoyl]imidazo[1,2-a]pyridin-2-yl}-4-phenylbutanoic acid] | > 5.70
COc1ccc(C2(CNC(=O)c3cccc4nc(CCC(=O)O)cn34)CCCCC2)cc1 [Compound 998, 3-[5-({[1-(4-methoxyphenyl)cyclohexyl]methyl}carbamoyl)imidazo[1,2-a]pyridin-2-yl]propanoic acid] | > 5.70
CC(C)(C)[Si](C)(C)OCCCn1ccc(NCc2cn3c(C(=O)NCC45CC6CC(CC(C6)C4)C5)cccc3n2)n1 [Compound 999, N-(adamantan-1-ylmethyl)-2-({[1-(3-{[tert-butyl (dimethyl)silyl]oxy}propyl)-1H-pyrazol-3-yl]amino}methyl) imidazo[1,2-a] pyridine-5-carboxamide] | > 5.70
O=C(NCC12CC3CC(CC(C3)C1)C2)c1cccc2nc(CNc3ccn(CCCO)n3)cn12 [Compound 1000, N-(adamantan-1-ylmethyl)-2-({[1-(3-hydroxypropyl)-1H-pyrazol-3-yl]amino}methyl) imidazo [1,2-a]pyridine-5-carboxamide] | > 5.70
CCOC(=O)C(CC1CC1)c1cn2c(C(=O)NCC34CC5CC(CC(C5)C3)C4)cccc2n1 (stereo not drawn) [Compound 1001, ethyl 2-{5-[(adamantan-1-ylmethyl)carbamoyl]imidazo[1,2-a]pyridin-2-yl}-3-cyclopropylpropanoate] | > 5.70
O=C(NCC12CC3CC(CC(C3)C1)C2)c1cccc2nc(C(CC3CC3)C(=O)O)cn12 (stereo not drawn) [Compound 1002, 2-{5-[(adamantan-1-ylmethyl)carbamoyl]imidazo[1,2-a]pyridin-2-yl}-3-cyclopropylpropanoic acid] | > 5.70
O=C(NCC12CC3CC(CC(C3)C1)C2)c1cccc2nc(CC(Cc3ccccc3)C(=O)O)cn12 (stereo not drawn) [Compound 1003, 3-{5-[(adamantan-1-ylmethyl)carbamoyl]imidazo[1,2-a]pyridin-2-yl}-2-benzylpropanoic acid] | > 5.70
CC(C)CC(CNC(=O)c1cccc2nc(CC(Cc3ccccc3)C(=O)O)cn12)c1ccccc1 (stereo not drawn) [Compound 1004, 2-benzyl-3-{5-[(4-methyl-2-phenylpentyl)carbamoyl]imidazo[1,2-a]pyridin-2-yl} propanoic acid] | > 5.70
Cc1ccc(C(CNC(=O)c2cccc3nc(CC(Cc4ccccc4)C(=O)O)cn23)CC(C)C)cc1 (stereo not drawn) [Compound 1005, 2-benzyl-3-(5-{[4-methyl-2-(4-methylphenyl)pentyl]carbamoyl}imidazo[1,2-a]pyridin-2-yl)propanoic acid] | > 5.70
CCCC(CNC(=O)c1cccc2nc(CC(Cc3ccccc3)C(=O)O)cn12)c1ccc(Cl)cc1 (stereo not drawn) [Compound 1006, 2-benzyl-3-(5-{[2-(4-chlorophenyl)pentyl]carbamoyl}imidazo[1,2-a]pyridin-2-yl) propanoic acid] | > 5.70
CC(C)CC(CNC(=O)c1cccc2nc(CC(Cc3ccccc3)C(=O)O)cn12)c1ccc(Cl)cc1 (stereo not drawn) [Compound 1007, 2-benzyl-3-(5-{[2-(4-chlorophenyl)-4-methylpentyl]carbamoyl}imidazo[1,2-a]pyridin-2-yl) propanoic acid] | > 5.70

— patent US8431593B2, “Heteroaryl amide derivatives” (H. Lundbeck A/S, priority 2006, dated 2013)
